From patent US9597407B2, “Targeted antimicrobial moieties” (C3 Jian, Inc., priority 2009, dated 2017)
Entries after “also recorded” stand apart in the source; their conditions may differ. Square brackets hold non-standard residues; d marks the D form. Ends that are not written are not given here. dOrn = NCCC[C@@H](N)C(=O)O; Orn = NCCC[C@H](N)C(=O)O

Tested on: bacteria
Assay: Binding of targeting peptides to microorganisms (Table 3)
Settings: preferably 1x PBS
[1] = peptide binding in aqueous buffers varied by peptide solubility
[2] = microorganism bound by the targeting peptide, binding in aqueous buffers chosen by peptide solubility
[3] = peptide binding in aqueous buffers that varied depending on peptide solubility
[4] = microorganism the targeting peptide binds, binding in aqueous buffers that varied with peptide solubility

Substance	Target(s) (microorganism bound by the targeting peptide) [1]	Target(s) [2]	also measured
1T-29 (GSVIKKRRKRMSKKKHRKMLRRTRVQRRKLGK; Peptide with targeting and/or antimicrobial activity) [Peptide 1T-29]	S. epidermidis; also recorded: C. jeikeium; also recorded: C. xerosis; also recorded: C. striatum; also recorded: P. aeruginosa; also recorded: S. mutans; also recorded: S. aureus		
PF-268 (EVLLSDLRPDIFSET; Peptide with targeting and/or antimicrobial activity)		S. mutans	
1T-41 (KRGSKIVIAIAVVLIVLAGVWVW; Peptide with targeting and/or antimicrobial activity) [Peptide 1T-41]	S. mutans; also recorded: S. aureus; also recorded: S. epidermidis; also recorded: C. jeikeium; also recorded: C. striatum; also recorded: P. aeruginosa		
1T-28 (VSRDEAMEFIDREWTTLQPAGKSHA; Peptide with targeting and/or antimicrobial activity) [Peptide 1T-28]	P. aeruginosa		
1T-141 (KKFIILLFILVQGLIFSATKTLSDIIAL; Peptide with targeting and/or antimicrobial activity) [Peptide 1T-141]	F. nucleatum; also recorded: P. gingivalis; also recorded: S. epidermidis; also recorded: S. gordonii; also recorded: S. mitis; also recorded: S. mutans; also recorded: S. oralis; also recorded: S. sanguinis		
1T-21 (YVEEAVRAALKKEARISTEDTPVNLPSFDC; Peptide with targeting and/or antimicrobial activity) [Peptide 1T-21]	S. mutans; also recorded: P. aeruginosa		
1T-58 (CDDLHALERAGKLDALLSA; Peptide with targeting and/or antimicrobial activity) [Peptide 1T-58]	P. aeruginosa		
PF-304 (LVKDTSDIKNDLNNIEIVTSKNSNDIAKLKSVK; Peptide with targeting and/or antimicrobial activity)		S. mutans	
PF-368 (MLKQTA; Peptide with targeting and/or antimicrobial activity)		C. jeikeium; also recorded: C. jejuni	
PF-785 (MRPQHSPAGKAFVVKKITHEQS; Peptide with targeting and/or antimicrobial activity)			Target(s) (microorganism bound by the targeting peptide) [3]: Mycobacteria spp.
1T-24 (EEAEEKLAEVSQAVKRLVR; Peptide with targeting and/or antimicrobial activity) [Peptide 1T-24]	P. aeruginosa		
1T-91 (TSVRPGAAGAAVPAGAAGAAGAGWRWP; Peptide with targeting and/or antimicrobial activity) [Peptide 1T-91]	S. mitis; also recorded: S. mutans; also recorded: S. oralis; also recorded: S. sanguinis		
PF-239 (PKHNVVTGVSVDLDYKP; Peptide with targeting and/or antimicrobial activity)		S. mutans; also recorded: E. coli	
PF-314 (ECLKKAIKSKALNKAFKIDVPDEVYDNLLMELEEYEK; Peptide with targeting and/or antimicrobial activity)		S. mutans	
PF-348 (ESASAAEWYNPNMNVKKAICMG; Peptide with targeting and/or antimicrobial activity)		B. subtilis; also recorded: E. coli; also recorded: P. aeruginosa; also recorded: C. albicans; also recorded: E. faecalis; also recorded: C. jejuni	
PF-228 (NQLGSQAFAQL; Peptide with targeting and/or antimicrobial activity)		S. mutans	
PF-782 (TGPRRGIDLTSNRALSEVLDEGLELNSRK; Peptide with targeting and/or antimicrobial activity)			Target(s) (microorganism bound by the targeting peptide) [3]: Mycobacteria spp.
1T-125 (DAITGGNPPLSDTDGLRP; Peptide with targeting and/or antimicrobial activity) [Peptide 1T-125]	S. epidermidis; also recorded: S. gordonii; also recorded: S. mutans; also recorded: S. oralis		
Py Pf 12 ([dS]KG[Orn][dS]SGK[dOrn]ES; bridge (positions not given here); not fully specified (bridges))			Target(s) [4]: P. fluorescens
PF-773 (TLKESK; Peptide with targeting and/or antimicrobial activity)			Target(s) (microorganism bound by the targeting peptide) [3]: S. epidermidis; also recorded: C. albicans; also recorded: C. jeikeium
PEIIKIVSGLL [PF-758]			Target(s) (microorganism bound by the targeting peptide) [3]: S. epidermidis and M. luteus and E. coli and MRSA and S. pneumoniae and E. faecalis and C. jeikeium
PF-187 (EIQKIAKGVSGQVYGPSRQITISKKR; Peptide with targeting and/or antimicrobial activity)		S. epidermidis and M. luteus and E. coli and MRSA	
PF-707 (IDPESIVTTNNKQDNVDEQ; Peptide with targeting and/or antimicrobial activity)			Target(s) (microorganism bound by the targeting peptide) [3]: S. mutans; also recorded: E. coli

Substance	Target(s) (microorganism bound by the targeting peptide) [1]	Target(s) [2]	also measured
PF-483 (EDNKDKKDKKDK; Peptide with targeting and/or antimicrobial activity)			Target(s) (microorganisms bound by the targeting peptide) [3]: P. mirabilis; also recorded: C. jeikeium; also recorded: C. jejuni
PF-669 (RADRIESYPADGDRVITLWRNPYR; Peptide with targeting and/or antimicrobial activity)			Target(s) (microorganism bound by the targeting peptide) [3]: Mycobacteria spp
PF-147 (RRPRRRRSGHGQSASAA; Peptide with targeting and/or antimicrobial activity)		S. epidermidis and M. luteus and MRSA	
1T-31 (NATGTDIGEVTLTLGRFS; Peptide with targeting and/or antimicrobial activity) [Peptide 1T-31]	S. mutans; also recorded: P. aeruginosa		
PF-259 (LPFSKIGRRVSYKKKDVLKYEQSKTVLNTAQLATV; Peptide with targeting and/or antimicrobial activity)		S. epidermidis; also recorded: P. aeruginosa; also recorded: A. baumannii	
VYSFLYVLVIVRKLLSMKKRIERL [PF-499]			Target(s) (microorganisms bound by the targeting peptide) [3]: S. mutans; also recorded: E. coli
PF-678 (RDRRWTRRDMYDWLESARV; Peptide with targeting and/or antimicrobial activity)			Target(s) (microorganism bound by the targeting peptide) [3]: Mycobacteria spp
PF-671 (TVSAFRTVH; Peptide with targeting and/or antimicrobial activity)			Target(s) (microorganism bound by the targeting peptide) [3]: S. mutans; also recorded: E. coli
1T-74 (DIDWGRKISCAAGVAYGAIDGCATTV; Peptide with targeting and/or antimicrobial activity) [Peptide 1T-74]	S. pneumoniae		
PF-189 (GNLTRSREAARATQ; Peptide with targeting and/or antimicrobial activity)		S. epidermidis and M. luteus and C. albicans and MRSA and E. faecalis and C. jejuni	
1T-48 (KLQVHHGRATHTLLLQPPLCAPGTIR; Peptide with targeting and/or antimicrobial activity) [Peptide 1T-48]	S. aureus; also recorded: S. epidermidis; also recorded: C. jeikeium; also recorded: C. xerosis; also recorded: C. striatum; also recorded: P. aeruginosa		
1T-295 (KYKLKKIIL; Peptide with targeting and/or antimicrobial activity) [Peptide 1T-295]			Target(s) [4]: S. mitis; also recorded: S. salivarious; also recorded: S. sanguinis
PF-132 (RPGDGAAEQGRSR; Peptide with targeting and/or antimicrobial activity)		S. epidermidis; also recorded: C. jeikeium	
PF-500 (MGIFKEEKIKFIDCKGEEVILKIKIKDIKK; Peptide with targeting and/or antimicrobial activity)			Target(s) (microorganisms bound by the targeting peptide) [3]: S. mutans; also recorded: E. coli
PF-185 (RPAQARQGPGGLIADRHIRA; Peptide with targeting and/or antimicrobial activity)		E. coli; also recorded: P. aeruginosa	
1T-101 (RLRVGRATDLPLTSFAVGVVRNLPDAPAH; Peptide with targeting and/or antimicrobial activity) [Peptide 1T-101]	A. naeslundii; also recorded: P. gingivalis; also recorded: S. epidermidis; also recorded: S. gordonii; also recorded: S. mitis; also recorded: S. mutans; also recorded: S. oralis; also recorded: S. sanguinis		
PF-267 (SDDKRTD; Peptide with targeting and/or antimicrobial activity)		M. luteus	
PF-780 (AVYDALVALAAAEHRAELATRDARAKDTYEKIGVHVVVAA; Peptide with targeting and/or antimicrobial activity)			Target(s) (microorganism bound by the targeting peptide) [3]: Mycobacteria spp.
PF-783 (FTSEVRGVFTYRVNKAGLITNMRGYWNLDMMTFGNQE; Peptide with targeting and/or antimicrobial activity)			Target(s) (microorganism bound by the targeting peptide) [3]: Mycobacteria spp.
PF-223 (VKFCIECQTKLERKRR; Peptide with targeting and/or antimicrobial activity)		S. epidermidis; also recorded: M. luteus; also recorded: A. baumannii	
PF-C271 (FFPSYYSIIITYF; Peptide with targeting and/or antimicrobial activity)			Target(s) (microorganism bound by the targeting peptide) [3]: A. naeslundii; also recorded: F. nucleatum; also recorded: P. gingivalis; also recorded: S. mutans; also recorded: T. denticola
1T-84 (FRKKRYGLSILLWLNAFTNLVNSIHAFYMTLF; Peptide with targeting and/or antimicrobial activity) [Peptide 1T-84]	S. pneumoniae		
1T-259 (EKLKKILLKLAVCGKAWYTL; Peptide with targeting and/or antimicrobial activity) [Peptide 1T-259]			Target(s) [4]: F. nucleatum; also recorded: P. gingivalis; also recorded: T. denticola; also recorded: S. mitis; also recorded: S. mutans; also recorded: S. oralis; also recorded: S. sanguinis
